From PubChem BioAssay (NCI)
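Following 48 hours of exposure in 96-well plates, responses at five concentrations were used to interpolate endpoints linearly. TGI: total growth inhibition.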

Assays:
Assay in all cases: growth of human tumour cells (NCI), 48 h
[1] = system: 786-0 renal
[2] = system: A498 renal
[3] = system: A549 NSCLC
[4] = system: ACHN renal
[5] = system: CAKI-1 renal
[6] = system: CCRF-CEM leukemia
[7] = system: DMS 114 small cell lung
[8] = system: EKVX NSCLC
[9] = system: HCC-2998 colon
[10] = system: HCT-116 colon
[11] = system: HCT-15 colon
[12] = system: HL-60(TB) leukemia
[13] = system: HOP-62 NSCLC
[14] = system: HT29 colon
[15] = system: IGROV1 ovarian
[16] = system: K-562 leukemia
[17] = system: KM12 colon
[18] = system: KM20L2 colon
[19] = system: LOX IMVI melanoma
[20] = system: M14 melanoma
[21] = system: M19-MEL melanoma
[22] = system: MALME-3M melanoma
[23] = system: MOLT-4 leukemia
[24] = system: NCI-H226 lung
[25] = system: NCI-H23 lung
[26] = system: NCI-H460 lung
[27] = system: NCI-H522 lung
[28] = system: OVCAR-3 ovarian
[29] = system: OVCAR-4 ovarian
[30] = system: OVCAR-5 ovarian
[31] = system: OVCAR-8 ovarian
[32] = system: RPMI-8226 leukemia
[33] = system: SF-295 CNS
[34] = system: SF-539 CNS
[35] = system: SK-MEL-2 melanoma
[36] = system: SK-MEL-28 melanoma
[37] = system: SK-MEL-5 melanoma
[38] = system: SK-OV-3 ovarian
[39] = system: SN12C renal
[40] = system: SNB-19 CNS
[41] = system: SNB-78 CNS
[42] = system: SR leukemia
[43] = system: SW-620 colon
[44] = system: TK-10 renal
[45] = system: U251 CNS
[46] = system: UACC-257 melanoma
[47] = system: UACC-62 melanoma
[48] = system: UO-31 renal
[49] = system: XF 498 CNS
[50] = system: COLO 205 colon
[51] = system: DLD-1 colon
[52] = system: DMS 273 small cell lung
[53] = system: HOP-92 NSCLC
[54] = system: LXFL 529 NSCLC
[55] = system: SF-268 CNS
[56] = system: SNB-75 CNS

`N#C/C(=C/c1cccc2ccccc12)C(=O)c1ccccc1` was tested. Which TGI [1] did it give?
Its TGI is 30.3 µM.

And the TGI [2]?
Its TGI is 55.3 µM.

What about the TGI [3] of the same compound?
Its TGI is over 10 µM.

And the TGI [4]?
The TGI was over 10 µM.

And the TGI [5]?
The TGI was over 100 µM.

And the TGI [6]?
Its TGI is 39 µM.

And the TGI [7]?
Its TGI is over 100 µM.

What about the TGI [8] of the same compound?
The TGI was over 10 µM.

And the TGI [9]?
The TGI was 49.2 µM.

And the TGI [10]?
The TGI was 34.4 µM.

What about the TGI [11] of the same compound?
The TGI was 39.3 µM.

What about the TGI [12] of the same compound?
Its TGI is 46.9 µM.

What about the TGI [13] of the same compound?
Its TGI is 41.1 µM.

What about the TGI [14] of the same compound?
Its TGI is over 100 µM.

What about the TGI [15] of the same compound?
Its TGI is 54.8 µM.

And the TGI [16]?
Its TGI is over 10 µM.

And the TGI [17]?
Its TGI is 43.2 µM.

And the TGI [18]?
Its TGI is 37.1 µM.

And the TGI [19]?
The TGI was 39.3 µM.

And the TGI [20]?
The TGI was 30.6 µM.

And the TGI [21]?
Its TGI is 86.6 µM.

And the TGI [22]?
The TGI was 47.6 µM.

What about the TGI [23] of the same compound?
The TGI was 38.2 µM.

What about the TGI [24] of the same compound?
Its TGI is 47.9 µM.

And the TGI [25]?
The TGI was 32.2 µM.

What about the TGI [26] of the same compound?
Its TGI is 78.2 µM.

And the TGI [27]?
The TGI was 54.6 µM.

What about the TGI [28] of the same compound?
Its TGI is over 100 µM.

And the TGI [29]?
Its TGI is over 100 µM.

And the TGI [30]?
Its TGI is 50.1 µM.

What about the TGI [31] of the same compound?
Its TGI is over 100 µM.

What about the TGI [32] of the same compound?
The TGI was 69.6 µM.

And the TGI [33]?
The TGI was 44.4 µM.

And the TGI [34]?
The TGI was 34.9 µM.

What about the TGI [35] of the same compound?
Its TGI is 41.6 µM.

What about the TGI [36] of the same compound?
Its TGI is 30 µM.

What about the TGI [37] of the same compound?
The TGI was over 10 µM.

And the TGI [38]?
Its TGI is over 100 µM.

And the TGI [39]?
Its TGI is 85.6 µM.

What about the TGI [40] of the same compound?
Its TGI is 41.6 µM.

And the TGI [41]?
Its TGI is over 100 µM.

And the TGI [42]?
The TGI was 88.3 µM.

What about the TGI [43] of the same compound?
The TGI was 32 µM.

And the TGI [44]?
The TGI was over 100 µM.

And the TGI [45]?
The TGI was 37.9 µM.

What about the TGI [46] of the same compound?
Its TGI is over 10 µM.

What about the TGI [47] of the same compound?
The TGI was 38.4 µM.

And the TGI [48]?
Its TGI is 35.9 µM.

And the TGI [49]?
The TGI was 39.3 µM.

How did the TGI [1] turn out when `CCc1n[nH]c(=S)n1/N=C/c1ccc(-c2ccc([N+](=O)[O-])cc2)o1` was run?
The TGI was over 100 µM.

And the TGI [3]?
Its TGI is over 100 µM.

What about the TGI [4] of the same compound?
The TGI was over 100 µM.

What about the TGI [5] of the same compound?
Its TGI is over 100 µM.

And the TGI [50]?
Its TGI is over 100 µM.

And the TGI [51]?
The TGI was over 100 µM.

What about the TGI [52] of the same compound?
The TGI was over 100 µM.

What about the TGI [9] of the same compound?
The TGI was over 100 µM.

What about the TGI [10] of the same compound?
The TGI was over 100 µM.

And the TGI [11]?
Its TGI is over 100 µM.

And the TGI [12]?
The TGI was over 100 µM.

And the TGI [13]?
Its TGI is over 100 µM.

What about the TGI [53] of the same compound?
Its TGI is over 100 µM.

And the TGI [14]?
Its TGI is over 100 µM.

What about the TGI [15] of the same compound?
Its TGI is over 100 µM.

What about the TGI [16] of the same compound?
Its TGI is over 100 µM.

What about the TGI [17] of the same compound?
Its TGI is over 100 µM.

What about the TGI [18] of the same compound?
The TGI was over 100 µM.

And the TGI [19]?
The TGI was over 100 µM.

And the TGI [54]?
Its TGI is over 100 µM.

What about the TGI [20] of the same compound?
The TGI was over 100 µM.

What about the TGI [21] of the same compound?
The TGI was over 100 µM.

What about the TGI [22] of the same compound?
Its TGI is over 100 µM.

And the TGI [23]?
Its TGI is over 100 µM.

And the TGI [24]?
Its TGI is over 100 µM.

And the TGI [25]?
The TGI was over 100 µM.

What about the TGI [26] of the same compound?
The TGI was over 100 µM.

And the TGI [27]?
Its TGI is over 100 µM.

What about the TGI [28] of the same compound?
Its TGI is over 100 µM.

And the TGI [29]?
Its TGI is over 100 µM.

What about the TGI [30] of the same compound?
The TGI was over 100 µM.

What about the TGI [31] of the same compound?
The TGI was over 100 µM.

And the TGI [32]?
The TGI was over 100 µM.

What about the TGI [55] of the same compound?
The TGI was over 100 µM.

What about the TGI [33] of the same compound?
Its TGI is over 100 µM.

And the TGI [34]?
The TGI was over 100 µM.

And the TGI [35]?
Its TGI is over 100 µM.

What about the TGI [36] of the same compound?
The TGI was over 100 µM.

What about the TGI [38] of the same compound?
Its TGI is over 100 µM.

And the TGI [39]?
The TGI was over 100 µM.

And the TGI [40]?
The TGI was over 100 µM.

And the TGI [56]?
The TGI was over 100 µM.

And the TGI [41]?
Its TGI is over 100 µM.

What about the TGI [42] of the same compound?
The TGI was over 100 µM.

And the TGI [43]?
Its TGI is over 100 µM.

What about the TGI [44] of the same compound?
The TGI was over 100 µM.

And the TGI [45]?
Its TGI is over 100 µM.

And the TGI [46]?
Its TGI is over 100 µM.

And the TGI [47]?
Its TGI is over 100 µM.

What about the TGI [48] of the same compound?
Its TGI is over 100 µM.

And the TGI [49]?
The TGI was over 100 µM.
